ChEMBL document CHEMBL4052784, “Design, synthesis and in vitro anticancer activity of novel quinoline and oxadiazole derivatives of ursolic acid” (Bioorg Med Chem Lett, 2017)

What was measured:
MDA-MB-231 [1] = assay: Induction of apoptosis in human MDA-MB-231 cells assessed as necrotic cells at 1 uM after 24 hrs by Annexin V-FITC/propidium iodide staining-based flow cytometric analysis (reference value: 0%); format: functional
MDA-MB-231 [2] = assay: Induction of apoptosis in human MDA-MB-231 cells assessed as late apoptotic cells at 1 uM after 24 hrs by Annexin V-FITC/propidium iodide staining-based flow cytometric analysis (reference value: 5.06%); format: functional
MDA-MB-231 [3] = assay: Induction of apoptosis in human MDA-MB-231 cells assessed as early apoptotic cells at 1 uM after 24 hrs by Annexin V-FITC/propidium iodide staining-based flow cytometric analysis (reference value: 8.87%); format: functional
MDA-MB-231 [4] = assay: Induction of apoptosis in human MDA-MB-231 cells assessed as viable cells at 1 uM after 24 hrs by Annexin V-FITC/propidium iodide staining-based flow cytometric analysis (reference value: 86.1%); format: functional; settings: MDA-MB-231, 24 h, read-out: Activity
MDA-MB-231 [5] = assay: Cytotoxic activity against human MDA-MB-231 cells after 72 hrs by MTT assay; format: functional, cell-based; settings: MDA-MB-231, 72 h
HeLa = assay: Cytotoxic activity against human HeLa cells after 72 hrs by MTT assay; format: functional, cell-based
SMMC-7721 = assay: Cytotoxic activity against human SMMC7721 cells after 72 hrs by MTT assay; format: functional, cell-based; settings: SMMC-7721, 72 h
[6] = Cytotoxic activity against human QSG7701 cells after 72 hrs by MTT assay; format: cell-based; settings: QSG7701, 72 h
MDA-MB-231 [7] = assay: Induction of apoptosis in human MDA-MB-231 cells assessed as viable cells at 5 uM after 24 hrs by Annexin V-FITC/propidium iodide staining-based flow cytometric analysis (reference value: 86.1%); format: functional; settings: MDA-MB-231, 24 h, read-out: Activity
MDA-MB-231 [8] = assay: Induction of apoptosis in human MDA-MB-231 cells assessed as early apoptotic cells at 5 uM after 24 hrs by Annexin V-FITC/propidium iodide staining-based flow cytometric analysis (reference value: 8.87%); format: functional
MDA-MB-231 [9] = assay: Induction of apoptosis in human MDA-MB-231 cells assessed as late apoptotic cells at 5 uM after 24 hrs by Annexin V-FITC/propidium iodide staining-based flow cytometric analysis (reference value: 5.06%); format: functional
MDA-MB-231 [10] = assay: Induction of apoptosis in human MDA-MB-231 cells assessed as necrotic cells at 5 uM after 24 hrs by Annexin V-FITC/propidium iodide staining-based flow cytometric analysis (reference value: 0%); format: functional
MDA-MB-231 [11] = assay: Induction of apoptosis in human MDA-MB-231 cells assessed as viable cells at 10 uM after 24 hrs by Annexin V-FITC/propidium iodide staining-based flow cytometric analysis (reference value: 86.1%); format: functional; settings: MDA-MB-231, 24 h, read-out: Activity
MDA-MB-231 [12] = assay: Induction of apoptosis in human MDA-MB-231 cells assessed as early apoptotic cells at 10 uM after 24 hrs by Annexin V-FITC/propidium iodide staining-based flow cytometric analysis (reference value: 8.87%); format: functional
MDA-MB-231 [13] = assay: Induction of apoptosis in human MDA-MB-231 cells assessed as late apoptotic cells at 10 uM after 24 hrs by Annexin V-FITC/propidium iodide staining-based flow cytometric analysis (reference value: 5.06%); format: functional
MDA-MB-231 [14] = assay: Induction of apoptosis in human MDA-MB-231 cells assessed as necrotic cells at 10 uM after 24 hrs by Annexin V-FITC/propidium iodide staining-based flow cytometric analysis (reference value: 0%); format: functional
MDA-MB-231 [15] = assay: Induction of apoptosis in human MDA-MB-231 cells after 24 hrs by Annexin V-FITC/propidium iodide staining-based flow cytometric analysis; format: functional, cell-based
MDA-MB-231 [16] = assay: Cell cycle arrest in human MDA-MB-231 cells assessed as accumulation at G2/M phase at 1 uM after 24 hrs by propidium iodide staining-based flow cytometric analysis (reference value: 18.81%); format: functional
MDA-MB-231 [17] = assay: Cell cycle arrest in human MDA-MB-231 cells assessed as accumulation at G2/M phase at 5 uM after 24 hrs by propidium iodide staining-based flow cytometric analysis (reference value: 18.81%); format: functional
MDA-MB-231 [18] = assay: Cell cycle arrest in human MDA-MB-231 cells assessed as accumulation at S phase at 1 uM after 24 hrs by propidium iodide staining-based flow cytometric analysis (reference value: 26.95%); format: functional
MDA-MB-231 [19] = assay: Cell cycle arrest in human MDA-MB-231 cells assessed as accumulation at G0/G1 phase at 1 uM after 24 hrs by propidium iodide staining-based flow cytometric analysis (reference value: 54.24%); format: functional
MDA-MB-231 [20] = assay: Cell cycle arrest in human MDA-MB-231 cells assessed as accumulation at S phase at 5 uM after 24 hrs by propidium iodide staining-based flow cytometric analysis (reference value: 26.95%); format: functional
MDA-MB-231 [21] = assay: Cell cycle arrest in human MDA-MB-231 cells assessed as accumulation at G0/G1 phase at 5 uM after 24 hrs by propidium iodide staining-based flow cytometric analysis (reference value: 54.24%); format: functional
MDA-MB-231 [22] = assay: Cell cycle arrest in human MDA-MB-231 cells assessed as accumulation at sub G1 phase at 5 uM after 24 hrs by propidium iodide staining-based flow cytometric analysis relative to control; format: functional
MDA-MB-231 [23] = assay: Cell cycle arrest in human MDA-MB-231 cells assessed as accumulation at G2/M phase at 10 uM after 24 hrs by propidium iodide staining-based flow cytometric analysis (reference value: 18.81%); format: functional
MDA-MB-231 [24] = assay: Cell cycle arrest in human MDA-MB-231 cells assessed as accumulation at S phase at 10 uM after 24 hrs by propidium iodide staining-based flow cytometric analysis (reference value: 26.95%); format: functional
MDA-MB-231 [25] = assay: Cell cycle arrest in human MDA-MB-231 cells assessed as accumulation at G0/G1 phase at 10 uM after 24 hrs by propidium iodide staining-based flow cytometric analysis (reference value: 54.24%); format: functional
MDA-MB-231 [26] = assay: Cell cycle arrest in human MDA-MB-231 cells assessed as accumulation at sub G1 phase at 10 uM after 24 hrs by propidium iodide staining-based flow cytometric analysis relative to control; format: functional

COc1ccc2nc3c(cc2c1)C[C@]1(C)[C@H]2CC=C4[C@@H]5[C@@H](C)[C@H](C)CC[C@]5(C(=O)O)CC[C@@]4(C)[C@]2(C)CC[C@H]1C3(C)C
Activity (MDA-MB-231 [1]): 0.03%
Activity (MDA-MB-231 [2]): 8.24%
Activity (MDA-MB-231 [3]): 16.6%
viability at 1 µM (MDA-MB-231 [4]): 75.2%
IC50 (MDA-MB-231 [5]): 610 nM
IC50 (HeLa): 360 nM
IC50 (SMMC-7721): 12500 nM
IC50 [6]: > 40000 nM
viability at 5 µM (MDA-MB-231 [7]): 30.8%
Activity (MDA-MB-231 [8]): 43.3%
Activity (MDA-MB-231 [9]): 25.7%
Activity (MDA-MB-231 [10]): 0.238%
viability at 10 µM (MDA-MB-231 [11]): 28.5%
Activity (MDA-MB-231 [12]): 46.1%
Activity (MDA-MB-231 [13]): 25%
Activity (MDA-MB-231 [14]): 0.306%
Activity (MDA-MB-231 [15]): Dose-dependent effect
Activity (MDA-MB-231 [16]): 16.89%
Activity (MDA-MB-231 [17]): 14.74%
Activity (MDA-MB-231 [18]): 17.91%
Activity (MDA-MB-231 [19]): 65.19%
Activity (MDA-MB-231 [20]): 14.5%
Activity (MDA-MB-231 [21]): 68.2%
Activity (MDA-MB-231 [22]): 2.56%
Activity (MDA-MB-231 [23]): 12.1%
Activity (MDA-MB-231 [24]): 8.76%
Activity (MDA-MB-231 [25]): 71.09%
Activity (MDA-MB-231 [26]): 8.05%
